Laboratory results from the kinase profiling compilation of Christmann-Franck et al. (2016).
“And” between values parts separate entries of the source, which are not always exact repeats. Identical values can stand only once.

Experiments:
Test in all cases: radiometric filter-binding kinase assay, Kinase HotSpot
Conditions in all cases: compound 0.5 µM; ATP 10 µM
PKN1 (human) = PKN1 (human) (UniProt Q16512)
TGFBR1 (human) = TGFBR1 (human) (UniProt P36897)
MYLK (human) = MYLK (human) (UniProt Q15746)
TYRO3 (human) = TYRO3 (human) (UniProt Q06418)
BMX (human) = BMX (human) (UniProt P51813)
RPS6KA4 KD2 (human) = RPS6KA4 KD2 (human) (UniProt O75676)
NEK6 (human) = NEK6 (human) (UniProt Q9HC98)
SIK2 (human) = SIK2 (human) (UniProt Q9H0K1)
FGFR1 (human) = FGFR1 (human) (UniProt P11362)
DYRK4 (human) = DYRK4 (human) (UniProt Q9NR20)
GRK7 (human) = GRK7 (human) (UniProt Q8WTQ7)
EPHA1 (human) = EPHA1 (human) (UniProt P21709)
MAP4K2 (human) = MAP4K2 (human) (UniProt Q12851)
DAPK1 (human) = DAPK1 (human) (UniProt P53355)
BTK (human) = BTK (human) (UniProt Q06187)
NEK7 (human) = NEK7 (human) (UniProt Q8TDX7)
STK24 (human) = STK24 (human) (UniProt Q9Y6E0)
EPHA2 (human) = EPHA2 (human) (UniProt P29317)
PRKD3 (human) = PRKD3 (human) (UniProt O94806)
IKBKB (human) = IKBKB (human) (UniProt O14920)
ROCK2 (human) = ROCK2 (human) (UniProt O75116)
FLT3 (human) = FLT3 (human) (UniProt P36888)
CSNK2A1 (human) = CSNK2A1 (human) (UniProt P68400)
ABL1 (human) = ABL1 (human) (UniProt P00519)
MAP4K5 (human) = MAP4K5 (human) (UniProt Q9Y4K4)
MAP3K7 TAB1 (human) = MAP3K7 TAB1 (human) (UniProt O43318+Q15750)
PNCK (human) = PNCK (human) (UniProt Q6P2M8)
IRAK1 (human) = IRAK1 (human) (UniProt P51617)
GRK6 (human) = GRK6 (human) (UniProt P43250)
CSNK2A2 (human) = CSNK2A2 (human) (UniProt P19784)
AURKC (human) = AURKC (human) (UniProt Q9UQB9)
TGFBR2 (human) = TGFBR2 (human) (UniProt P37173)
KIT (human) = KIT (human) (UniProt P10721)
LTK (human) = LTK (human) (UniProt P29376)
BLK (human) = BLK (human) (UniProt P51451)
MAPK9 (human) = MAPK9 (human) (UniProt P45984)
DSTYK (human) = DSTYK (human) (UniProt Q6XUX3)
STK11 (human) = STK11 (human) (UniProt Q15831)
CDK9 CCNT1 (human) = CDK9 CCNT1 (human) (UniProt P50750+O60563)
CDK4 CCND3 (human) = CDK4 CCND3 (human) (UniProt P30281+P11802)
CDK2 CCNE1 (human) = CDK2 CCNE1 (human) (UniProt P24941+P24864)
LYN (human) = LYN (human) (UniProt P07948)

Sequence of MAP4K5 (human) (Q9Y4K4 whole entry, looked up): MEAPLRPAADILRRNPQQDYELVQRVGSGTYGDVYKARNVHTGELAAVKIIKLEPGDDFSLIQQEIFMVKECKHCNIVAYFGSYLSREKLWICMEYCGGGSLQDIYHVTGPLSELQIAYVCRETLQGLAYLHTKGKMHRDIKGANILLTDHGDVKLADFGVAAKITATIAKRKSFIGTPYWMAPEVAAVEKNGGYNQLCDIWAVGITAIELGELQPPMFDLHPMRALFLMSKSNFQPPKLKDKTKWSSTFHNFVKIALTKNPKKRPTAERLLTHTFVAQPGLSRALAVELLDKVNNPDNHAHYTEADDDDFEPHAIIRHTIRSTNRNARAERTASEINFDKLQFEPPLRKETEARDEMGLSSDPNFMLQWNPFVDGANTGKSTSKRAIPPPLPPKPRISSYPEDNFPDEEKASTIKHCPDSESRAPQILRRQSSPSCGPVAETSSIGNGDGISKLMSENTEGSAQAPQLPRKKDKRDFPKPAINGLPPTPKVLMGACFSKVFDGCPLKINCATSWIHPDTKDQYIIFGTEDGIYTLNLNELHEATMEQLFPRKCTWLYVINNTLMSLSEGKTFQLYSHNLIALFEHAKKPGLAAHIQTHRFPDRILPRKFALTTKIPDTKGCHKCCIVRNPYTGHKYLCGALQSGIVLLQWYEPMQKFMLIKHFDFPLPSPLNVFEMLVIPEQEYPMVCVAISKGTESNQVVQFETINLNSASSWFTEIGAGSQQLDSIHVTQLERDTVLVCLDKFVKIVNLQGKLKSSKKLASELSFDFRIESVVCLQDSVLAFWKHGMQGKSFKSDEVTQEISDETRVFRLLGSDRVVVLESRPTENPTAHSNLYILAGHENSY
Sequence of FLT3 (human) (P36888 whole entry, looked up): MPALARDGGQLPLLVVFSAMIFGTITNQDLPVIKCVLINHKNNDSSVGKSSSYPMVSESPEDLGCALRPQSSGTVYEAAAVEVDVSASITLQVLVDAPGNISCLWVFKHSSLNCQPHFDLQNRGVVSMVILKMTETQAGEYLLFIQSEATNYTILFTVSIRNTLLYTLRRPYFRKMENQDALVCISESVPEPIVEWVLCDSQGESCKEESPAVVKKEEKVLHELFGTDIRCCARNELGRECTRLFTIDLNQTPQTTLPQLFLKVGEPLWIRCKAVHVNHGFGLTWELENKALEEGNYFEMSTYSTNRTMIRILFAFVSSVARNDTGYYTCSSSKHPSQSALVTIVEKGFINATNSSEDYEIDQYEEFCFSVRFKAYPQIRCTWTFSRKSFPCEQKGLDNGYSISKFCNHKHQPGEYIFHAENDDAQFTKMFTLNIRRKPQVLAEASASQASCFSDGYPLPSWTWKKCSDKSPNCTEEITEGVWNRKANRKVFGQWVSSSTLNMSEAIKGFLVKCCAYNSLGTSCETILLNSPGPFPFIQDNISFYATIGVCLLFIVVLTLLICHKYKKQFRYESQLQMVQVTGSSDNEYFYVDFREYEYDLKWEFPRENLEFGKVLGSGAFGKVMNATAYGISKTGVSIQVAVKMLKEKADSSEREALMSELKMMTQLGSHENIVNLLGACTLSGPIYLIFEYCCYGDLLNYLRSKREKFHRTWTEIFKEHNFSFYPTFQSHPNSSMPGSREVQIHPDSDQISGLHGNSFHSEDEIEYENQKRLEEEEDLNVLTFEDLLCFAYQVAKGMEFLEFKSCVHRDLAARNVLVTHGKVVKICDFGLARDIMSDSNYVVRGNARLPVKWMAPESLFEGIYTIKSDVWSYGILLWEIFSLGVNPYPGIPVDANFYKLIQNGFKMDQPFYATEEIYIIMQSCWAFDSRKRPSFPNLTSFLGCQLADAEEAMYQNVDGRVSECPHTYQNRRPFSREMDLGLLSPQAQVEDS
Sequence of NEK7 (human) (Q8TDX7 whole entry, looked up): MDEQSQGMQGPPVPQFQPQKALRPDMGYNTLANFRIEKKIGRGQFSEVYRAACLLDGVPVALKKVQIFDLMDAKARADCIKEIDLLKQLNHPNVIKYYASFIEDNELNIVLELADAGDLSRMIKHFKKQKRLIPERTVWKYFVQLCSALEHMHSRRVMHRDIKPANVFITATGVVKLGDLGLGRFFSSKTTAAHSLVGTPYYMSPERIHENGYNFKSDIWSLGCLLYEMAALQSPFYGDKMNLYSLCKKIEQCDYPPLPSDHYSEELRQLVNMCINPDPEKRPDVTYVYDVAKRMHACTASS
Sequence of SIK2 (human) (Q9H0K1 whole entry, looked up): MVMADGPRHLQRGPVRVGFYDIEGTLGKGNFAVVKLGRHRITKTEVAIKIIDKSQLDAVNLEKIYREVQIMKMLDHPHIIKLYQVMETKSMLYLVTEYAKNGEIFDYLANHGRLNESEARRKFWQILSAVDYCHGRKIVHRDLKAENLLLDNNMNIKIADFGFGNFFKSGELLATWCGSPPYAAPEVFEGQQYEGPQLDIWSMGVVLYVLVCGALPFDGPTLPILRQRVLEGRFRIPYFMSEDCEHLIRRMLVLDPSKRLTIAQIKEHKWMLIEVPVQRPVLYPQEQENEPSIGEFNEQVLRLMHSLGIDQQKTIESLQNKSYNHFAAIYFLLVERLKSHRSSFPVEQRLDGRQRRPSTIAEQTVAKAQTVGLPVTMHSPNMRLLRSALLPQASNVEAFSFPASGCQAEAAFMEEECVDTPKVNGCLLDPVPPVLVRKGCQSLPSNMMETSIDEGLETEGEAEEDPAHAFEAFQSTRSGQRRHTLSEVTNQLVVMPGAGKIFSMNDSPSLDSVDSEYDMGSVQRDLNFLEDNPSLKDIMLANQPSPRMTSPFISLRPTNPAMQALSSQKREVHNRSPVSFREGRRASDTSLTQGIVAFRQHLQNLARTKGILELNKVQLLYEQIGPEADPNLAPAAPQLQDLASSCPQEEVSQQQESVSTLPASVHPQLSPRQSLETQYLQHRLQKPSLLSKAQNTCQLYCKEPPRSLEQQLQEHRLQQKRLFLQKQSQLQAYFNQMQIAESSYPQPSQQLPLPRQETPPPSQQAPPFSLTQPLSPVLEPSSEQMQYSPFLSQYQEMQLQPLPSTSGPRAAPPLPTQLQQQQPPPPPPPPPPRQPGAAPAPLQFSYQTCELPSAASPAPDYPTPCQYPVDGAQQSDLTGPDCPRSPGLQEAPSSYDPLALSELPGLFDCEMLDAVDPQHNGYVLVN
Sequence of RPS6KA4 KD2 (human) (O75676 whole entry, looked up): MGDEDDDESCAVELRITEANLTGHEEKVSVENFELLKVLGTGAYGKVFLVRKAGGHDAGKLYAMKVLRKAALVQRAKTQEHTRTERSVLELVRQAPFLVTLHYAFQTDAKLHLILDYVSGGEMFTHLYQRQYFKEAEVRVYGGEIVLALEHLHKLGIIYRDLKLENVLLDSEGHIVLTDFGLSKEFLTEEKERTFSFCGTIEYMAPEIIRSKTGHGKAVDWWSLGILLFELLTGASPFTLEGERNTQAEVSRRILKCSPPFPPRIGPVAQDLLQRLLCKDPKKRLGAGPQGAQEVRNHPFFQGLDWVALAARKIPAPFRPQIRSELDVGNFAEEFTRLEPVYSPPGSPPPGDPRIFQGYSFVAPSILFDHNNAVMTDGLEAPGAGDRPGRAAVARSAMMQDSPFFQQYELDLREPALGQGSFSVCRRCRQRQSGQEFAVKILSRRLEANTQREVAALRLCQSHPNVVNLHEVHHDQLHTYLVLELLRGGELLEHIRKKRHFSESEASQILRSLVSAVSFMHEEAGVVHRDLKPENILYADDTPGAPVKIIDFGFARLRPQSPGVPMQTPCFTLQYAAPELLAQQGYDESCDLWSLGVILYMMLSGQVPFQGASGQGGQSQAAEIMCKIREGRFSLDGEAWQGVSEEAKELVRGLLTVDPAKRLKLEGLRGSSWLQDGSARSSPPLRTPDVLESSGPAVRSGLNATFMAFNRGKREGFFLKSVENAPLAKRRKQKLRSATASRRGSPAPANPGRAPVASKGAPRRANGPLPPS
Sequence of GRK6 (human) (P43250 whole entry, looked up): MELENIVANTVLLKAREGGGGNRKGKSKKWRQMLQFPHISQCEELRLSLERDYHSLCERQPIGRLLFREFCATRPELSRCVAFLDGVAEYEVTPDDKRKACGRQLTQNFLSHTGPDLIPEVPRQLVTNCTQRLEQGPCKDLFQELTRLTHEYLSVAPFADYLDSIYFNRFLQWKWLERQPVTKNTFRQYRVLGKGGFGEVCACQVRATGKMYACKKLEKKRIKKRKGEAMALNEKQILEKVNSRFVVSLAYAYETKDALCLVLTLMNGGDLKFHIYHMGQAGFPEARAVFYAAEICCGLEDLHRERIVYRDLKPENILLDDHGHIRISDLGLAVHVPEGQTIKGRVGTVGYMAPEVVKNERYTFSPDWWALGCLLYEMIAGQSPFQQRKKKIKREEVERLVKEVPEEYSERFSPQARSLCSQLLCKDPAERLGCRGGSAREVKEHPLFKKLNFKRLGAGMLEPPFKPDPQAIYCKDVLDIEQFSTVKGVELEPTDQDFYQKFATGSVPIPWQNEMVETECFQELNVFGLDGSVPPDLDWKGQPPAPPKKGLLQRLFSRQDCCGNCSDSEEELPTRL
Sequence of GRK7 (human) (Q8WTQ7 whole entry, looked up): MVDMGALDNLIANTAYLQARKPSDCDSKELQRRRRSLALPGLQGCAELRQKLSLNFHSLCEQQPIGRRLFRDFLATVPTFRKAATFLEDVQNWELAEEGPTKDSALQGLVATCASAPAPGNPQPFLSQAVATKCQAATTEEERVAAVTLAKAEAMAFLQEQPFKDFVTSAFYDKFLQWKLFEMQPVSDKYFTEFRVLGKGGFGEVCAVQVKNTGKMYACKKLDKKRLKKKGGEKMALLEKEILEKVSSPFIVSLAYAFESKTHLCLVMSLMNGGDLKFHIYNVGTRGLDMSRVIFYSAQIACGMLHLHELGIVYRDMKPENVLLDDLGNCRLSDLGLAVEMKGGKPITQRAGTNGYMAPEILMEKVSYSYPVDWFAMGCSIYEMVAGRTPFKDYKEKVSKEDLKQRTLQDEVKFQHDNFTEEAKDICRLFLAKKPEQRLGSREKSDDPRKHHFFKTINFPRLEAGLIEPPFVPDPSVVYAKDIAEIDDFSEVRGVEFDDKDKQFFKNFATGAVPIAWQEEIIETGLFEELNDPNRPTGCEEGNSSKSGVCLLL

Molecule `CC(C)[C@H](CO)Nc1nc(Nc2cc(N)cc(Cl)c2)c2ncn(C(C)C)c2n1` has a residual activity (PKN1 (human)) of 93.3%, a residual activity (TGFBR1 (human)) of 103% and a residual activity (MYLK (human)) of 81.3%. It also gave a residual activity (TYRO3 (human)) of 103%, a residual activity (BMX (human)) of 81.9% and a residual activity (RPS6KA4 KD2 (human)) of 89.3%. The residual activity (NEK6 (human)) was 111%, the residual activity (SIK2 (human)) was 104% and the residual activity (FGFR1 (human)) was 76.7%. For the same molecule, the residual activity (DYRK4 (human)) was 91.6%, the residual activity (GRK7 (human)) was 79.3% and the residual activity (EPHA1 (human)) was 76.9%. For the same molecule, the residual activity (MAP4K2 (human)) was 90.7%, the residual activity (DAPK1 (human)) was 95.3% and the residual activity (BTK (human)) was 33%. It also gave a residual activity (NEK7 (human)) of 89%, a residual activity (STK24 (human)) of 75.9% and a residual activity (EPHA2 (human)) of 67.5%. It also gave a residual activity (PRKD3 (human)) of 89.2%, a residual activity (IKBKB (human)) of 104% and a residual activity (ROCK2 (human)) of 101%. For the same molecule, the residual activity (FLT3 (human)) was 8.35%, the residual activity (CSNK2A1 (human)) was 99.3% and the residual activity (ABL1 (human)) was 45.5%. For the same molecule, the residual activity (MAP4K5 (human)) was 82.5%, the residual activity (MAP3K7 TAB1 (human)) was 51.3% and the residual activity (PNCK (human)) was 132%. For the same molecule, the residual activity (IRAK1 (human)) was 97.1%, the residual activity (GRK6 (human)) was 72.1% and the residual activity (CSNK2A2 (human)) was 106%. It also gave a residual activity (AURKC (human)) of 91.9%, a residual activity (TGFBR2 (human)) of 93.5% and a residual activity (KIT (human)) of 86.2%. The residual activity (LTK (human)) was 103%, the residual activity (BLK (human)) was 79.6% and the residual activity (MAPK9 (human)) was 99.8%. The residual activity (DSTYK (human)) was 93.1% and the residual activity (STK11 (human)) was 60.3%.

Work on `Cn1sc(=O)n(Cc2ccccc2)c1=O` yielded a residual activity (PKN1 (human)) of 98.5%, a residual activity (TGFBR1 (human)) of 97.2% and a residual activity (MYLK (human)) of 94.5%. The residual activity (TYRO3 (human)) was 99.9%, the residual activity (BMX (human)) was 91.6% and the residual activity (RPS6KA4 KD2 (human)) was 99%. The residual activity (NEK6 (human)) was 102%, the residual activity (SIK2 (human)) was 98.6% and the residual activity (FGFR1 (human)) was 95.6%. It also gave a residual activity (DYRK4 (human)) of 99.3%, a residual activity (CDK9 CCNT1 (human)) of 94.2% and a residual activity (GRK7 (human)) of 112%. The residual activity (EPHA1 (human)) was 106%, the residual activity (MAP4K2 (human)) was 119% and the residual activity (DAPK1 (human)) was 97.9%. It also gave a residual activity (BTK (human)) of 103%, a residual activity (NEK7 (human)) of 101% and a residual activity (STK24 (human)) of 105%. The residual activity (EPHA2 (human)) was 96.5%, the residual activity (PRKD3 (human)) was 95.9% and the residual activity (IKBKB (human)) was 112%. It also gave a residual activity (ROCK2 (human)) of 88.8%, a residual activity (FLT3 (human)) of 99.1% and a residual activity (CSNK2A1 (human)) of 95.4%. For the same molecule, the residual activity (ABL1 (human)) was 104%, the residual activity (MAP4K5 (human)) was 107% and the residual activity (MAP3K7 TAB1 (human)) was 105%. The residual activity (PNCK (human)) was 98.7%, the residual activity (IRAK1 (human)) was 116% and the residual activity (CDK4 CCND3 (human)) was 114%. It also gave a residual activity (GRK6 (human)) of 104%, a residual activity (CSNK2A2 (human)) of 98.5% and a residual activity (AURKC (human)) of 98.8%. For the same molecule, the residual activity (TGFBR2 (human)) was 123%, the residual activity (KIT (human)) was 101% and the residual activity (LTK (human)) was 101%. The residual activity (CDK2 CCNE1 (human)) was 95.1%, the residual activity (BLK (human)) was 101% and the residual activity (DSTYK (human)) was 92.9%. The residual activity (STK11 (human)) was 106% and the residual activity (LYN (human)) was 90.8% and 98.9%.

Molecule `Nc1nccc(-c2c(-c3ccc(F)cc3)ncn2C2CCNCC2)n1` has a residual activity (PKN1 (human)) of 96.3%, a residual activity (TGFBR1 (human)) of 102% and a residual activity (MYLK (human)) of 99.8%. It also gave a residual activity (TYRO3 (human)) of 96.9%, a residual activity (BMX (human)) of 92.9% and a residual activity (RPS6KA4 KD2 (human)) of 98.7%. The residual activity (NEK6 (human)) was 104%, the residual activity (SIK2 (human)) was 64.7% and the residual activity (FGFR1 (human)) was 91.2%. For the same molecule, the residual activity (DYRK4 (human)) was 99.3%, the residual activity (CDK9 CCNT1 (human)) was 87.1% and the residual activity (GRK7 (human)) was 106%. It also gave a residual activity (EPHA1 (human)) of 98.2%, a residual activity (MAP4K2 (human)) of 102% and a residual activity (DAPK1 (human)) of 88.2%. It also gave a residual activity (BTK (human)) of 100%, a residual activity (NEK7 (human)) of 98.9% and a residual activity (STK24 (human)) of 98.8%. For the same molecule, the residual activity (EPHA2 (human)) was 102%, the residual activity (PRKD3 (human)) was 37.9% and the residual activity (IKBKB (human)) was 104%. It also gave a residual activity (ROCK2 (human)) of 103%, a residual activity (FLT3 (human)) of 90.3% and a residual activity (CSNK2A1 (human)) of 94.7%. The residual activity (ABL1 (human)) was 101%, the residual activity (MAP4K5 (human)) was 68.1% and the residual activity (MAP3K7 TAB1 (human)) was 96.9%. For the same molecule, the residual activity (PNCK (human)) was 94.3%, the residual activity (IRAK1 (human)) was 114% and the residual activity (CDK4 CCND3 (human)) was 104%. It also gave a residual activity (GRK6 (human)) of 98.2%, a residual activity (CSNK2A2 (human)) of 92.2% and a residual activity (AURKC (human)) of 97.8%. It also gave a residual activity (TGFBR2 (human)) of 119%, a residual activity (KIT (human)) of 98.4% and a residual activity (LTK (human)) of 97.3%. It also gave a residual activity (CDK2 CCNE1 (human)) of 92.1%, a residual activity (BLK (human)) of 102% and a residual activity (DSTYK (human)) of 102%. The residual activity (STK11 (human)) was 89.1% and the residual activity (LYN (human)) was 87.5% and 97.5%.
